Data as given in US20090143279A1 (priority 2007, published 2009).
Where two headings read alike, the source gives them in different places.

Key:
OXPHOS gene expression = assay type: cell-based, mouse
reactive oxygen species = assay type: cell-based, mouse
cytochrome c = assay type: cell-based, mouse
nuOXPHOS transcripts = assay type: cell-based, mouse
mtOXPHOS transcripts = assay type: cell-based, mouse
[1] = test system: cellular dehydrogenase activity
[2] = test system: mitochondrial membrane potential; assay type: cell-based, mouse
[3] = 20 μM, composite Z-score vs DMSO
[4] = 18.5 μM, composite Z-score vs DMSO
[5] = composite Z-score vs DMSO, Conc 20 μM
[6] = normalized composite Z-score vs mock-treated (DMSO) wells, Conc 20 μM
[7] = composite Z-score vs DMSO, Conc 9.58 μM
[8] = composite Z-score vs mock-treated (DMSO) wells, concentration of each compound in μM
[9] = composite Z-score vs DMSO wells, Conc 20 μM
[10] = Conc 20 μM, normalized score vs mock-treated (DMSO) wells

**Q.** Which GE-HTS (OXPHOS gene expression; [3]) does the source give for `COc1c2occc2cc2ccc(=O)oc12` [methoxsalen] here?
**A.** −0.562

**Q.** What about the ROS (reactive oxygen species; [3]) of the same compound?
**A.** 0.310

**Q.** What about the cyt c (cytochrome c; [3]) of the same compound?
**A.** −0.889

**Q.** What about the nucOX (nuOXPHOS transcripts; [3]) of the same compound?
**A.** −0.513

**Q.** And the Viability (C2C12 myotubes; [3])?
**A.** 0.416

**Q.** And the mitoOX (mtOXPHOS transcripts; [3])?
**A.** −0.489

**Q.** And the MTT [1, 3]?
**A.** −0.976

**Q.** And the ΔΨm [2, 3]?
**A.** −0.034

**Q.** How did the GE-HTS (OXPHOS gene expression; [4]) turn out when `COc1c2occc2cc2ccc(=O)oc12` [methoxy-8-psoralen] was run?
**A.** 0.803

**Q.** What about the ROS (reactive oxygen species; [4]) of the same compound?
**A.** 0.103

**Q.** What about the cyt c (cytochrome c; [4]) of the same compound?
**A.** 0.227

**Q.** And the nucOX (nuOXPHOS transcripts; [4])?
**A.** 0.952

**Q.** And the Viability (C2C12 myotubes; [4])?
**A.** 1.463

**Q.** What about the mitoOX (mtOXPHOS transcripts; [4]) of the same compound?
**A.** 0.340

**Q.** What about the MTT [1, 4] of the same compound?
**A.** −0.371

**Q.** And the ΔΨm [2, 4]?
**A.** 0.605

**Q.** How did the GE-HTS (OXPHOS gene expression; [5]) turn out when `COC(=O)c1c(C)cc(O)cc1O` [methyl orsellinate] was run?
**A.** −1.129

**Q.** And the ROS (reactive oxygen species; [5])?
**A.** 1.212

**Q.** What about the cyt c (cytochrome c; [5]) of the same compound?
**A.** 0.573

**Q.** And the nucOX (nuOXPHOS transcripts; [5])?
**A.** −1.000

**Q.** And the Viability (C2C12 myotubes; [5])?
**A.** −0.008

**Q.** And the mitoOX (mtOXPHOS transcripts; [5])?
**A.** −1.146

**Q.** And the MTT [1, 5]?
**A.** 0.148

**Q.** And the ΔΨm [2, 5]?
**A.** −0.632

**Q.** `COP(=S)(OC)Oc1ccc([N+](=O)[O-])cc1` [methyl parathione] was tested. Which GE-HTS (OXPHOS gene expression) did it give?
**A.** 0.500

**Q.** What about the ROS (reactive oxygen species) of the same compound?
**A.** 0.218

**Q.** What about the cyt c (cytochrome c) of the same compound?
**A.** 0.414

**Q.** What about the nucOX (nuOXPHOS transcripts) of the same compound?
**A.** 0.500

**Q.** What about the Viability (C2C12 myotubes) of the same compound?
**A.** 1.967

**Q.** And the mitoOX (mtOXPHOS transcripts)?
**A.** 0.450

**Q.** And the MTT [1]?
**A.** −0.341

**Q.** What about the ΔΨm [2] of the same compound?
**A.** −0.353

**Q.** For `COc1c2c(cc3occ(-c4ccc5c(c4)OCO5)c(=O)c13)OC(C)(C)C=C2` [methyl robustone, reference compound], which GE-HTS (OXPHOS gene expression; [6]) is on record?
**A.** 0.033

**Q.** What about the ROS (reactive oxygen species; [6]) of the same compound?
**A.** −0.347

**Q.** What about the cyt c (cytochrome c; [6]) of the same compound?
**A.** 0.373

**Q.** And the nucOX (nuOXPHOS transcripts; [6])?
**A.** 0.075

**Q.** And the Viability (C2C12 myotubes; [6])?
**A.** 0.848

**Q.** And the mitoOX (mtOXPHOS transcripts; [6])?
**A.** −0.063

**Q.** What about the MTT [1, 6] of the same compound?
**A.** −0.344

**Q.** What about the ΔΨm [2, 6] of the same compound?
**A.** 0.715

**Q.** What does the source list for `C[C@H]1C[C@@H]2[C@H]([C@@H](O)C[C@@]3(C)[C@H]2CC[C@]3(O)C(=O)CO)[C@@]2(C)C=CC(=O)C=C12` [methylprednisolone]?
**A.** GE-HTS (OXPHOS gene expression): −0.220; ROS (reactive oxygen species): 0.133; cyt c (cytochrome c): −0.102; nucOX (nuOXPHOS transcripts): −0.138; Viability (C2C12 myotubes): −0.631; mitoOX (mtOXPHOS transcripts): −0.270; MTT [1]: −1.014; ΔΨm [2]: −0.375

**Q.** Which GE-HTS (OXPHOS gene expression; [3]) does the source give for `Cc1cc(=O)[nH]c(=S)[nH]1` [methylthiouracil] here?
**A.** −0.029

**Q.** And the ROS (reactive oxygen species; [3])?
**A.** 0.815

**Q.** What about the cyt c (cytochrome c; [3]) of the same compound?
**A.** 0.846

**Q.** And the nucOX (nuOXPHOS transcripts; [3])?
**A.** 0.146

**Q.** And the Viability (C2C12 myotubes; [3])?
**A.** −0.235

**Q.** And the mitoOX (mtOXPHOS transcripts; [3])?
**A.** −0.302

**Q.** And the MTT [1, 3]?
**A.** −0.633

**Q.** What about the ΔΨm [2, 3] of the same compound?
**A.** −0.553

**Q.** With `CN1CCCC(CC2c3ccccc3Sc3ccccc32)C1` (centres unmarked) [metixene] as the compound, how does the GE-HTS (OXPHOS gene expression) read?
**A.** −1.190

**Q.** What about the ROS (reactive oxygen species) of the same compound?
**A.** −0.834

**Q.** And the cyt c (cytochrome c)?
**A.** 0.097

**Q.** What about the nucOX (nuOXPHOS transcripts) of the same compound?
**A.** −1.058

**Q.** What about the Viability (C2C12 myotubes) of the same compound?
**A.** 1.221

**Q.** What about the mitoOX (mtOXPHOS transcripts) of the same compound?
**A.** −1.236

**Q.** And the MTT [1]?
**A.** −0.786

**Q.** What about the ΔΨm [2] of the same compound?
**A.** −0.713

**Q.** With `COCCc1ccc(OCC(O)CNC(C)C)cc1` (centres unmarked) [metoprolol, reference compound] as the compound, how does the GE-HTS (OXPHOS gene expression; [7]) read?
**A.** −0.423

**Q.** And the GE-HTS (OXPHOS gene expression; [5])?
**A.** 0.450

**Q.** What about the ROS (reactive oxygen species; [7]) of the same compound?
**A.** 0.253

**Q.** And the ROS (reactive oxygen species; [5])?
**A.** 0.652

**Q.** What about the cyt c (cytochrome c; [7]) of the same compound?
**A.** 0.496

**Q.** And the cyt c (cytochrome c; [5])?
**A.** 0.596

**Q.** And the nucOX (nuOXPHOS transcripts; [7])?
**A.** −0.430

**Q.** And the nucOX (nuOXPHOS transcripts; [5])?
**A.** 0.546

**Q.** And the Viability (C2C12 myotubes; [7])?
**A.** 0.437

**Q.** And the Viability (C2C12 myotubes; [5])?
**A.** 0.326

**Q.** What about the mitoOX (mtOXPHOS transcripts; [7]) of the same compound?
**A.** −0.342

**Q.** What about the mitoOX (mtOXPHOS transcripts; [5]) of the same compound?
**A.** 0.241

**Q.** What about the MTT [1, 7] of the same compound?
**A.** −1.894

**Q.** And the MTT [1, 5]?
**A.** −1.660

**Q.** What about the ΔΨm [2, 7] of the same compound?
**A.** −0.997

**Q.** What about the ΔΨm [2, 5] of the same compound?
**A.** −0.515

**Q.** For `COc1cc2occ(-c3cc4c(cc3OC)OCO4)c(=O)c2cc1OC` [milldurone], which GE-HTS (OXPHOS gene expression; [8]) is on record?
**A.** 0.343

**Q.** And the ROS (reactive oxygen species; [8])?
**A.** 0.680

**Q.** And the cyt c (cytochrome c; [8])?
**A.** 0.465

**Q.** What about the nucOX (nuOXPHOS transcripts; [8]) of the same compound?
**A.** 0.605

**Q.** What about the Viability (C2C12 myotubes; [8]) of the same compound?
**A.** −0.401

**Q.** And the mitoOX (mtOXPHOS transcripts; [8])?
**A.** −0.215

**Q.** And the MTT [1, 8]?
**A.** −0.713

**Q.** What about the ΔΨm [2, 8] of the same compound?
**A.** −0.569

**Q.** For `Clc1ccc(C(c2ccccc2Cl)C(Cl)Cl)cc1` (centres unmarked) [mitotane], which GE-HTS (OXPHOS gene expression; [3]) is on record?
**A.** −0.030

**Q.** And the ROS (reactive oxygen species; [3])?
**A.** 0.460

**Q.** What about the cyt c (cytochrome c; [3]) of the same compound?
**A.** −0.216

**Q.** And the nucOX (nuOXPHOS transcripts; [3])?
**A.** 0.072

**Q.** What about the Viability (C2C12 myotubes; [3]) of the same compound?
**A.** −1.631

**Q.** What about the mitoOX (mtOXPHOS transcripts; [3]) of the same compound?
**A.** −0.244

**Q.** And the MTT [1, 3]?
**A.** −1.708

**Q.** And the ΔΨm [2, 3]?
**A.** −0.542

**Q.** Which GE-HTS (OXPHOS gene expression; [9]) does the source give for `CCOC(=O)[N-]c1cn(N2CCOCC2)n[o+]1` [molsidomine] here?
**A.** 0.250

**Q.** And the ROS (reactive oxygen species; [9])?
**A.** −0.398

**Q.** What about the cyt c (cytochrome c) of the same compound?
**A.** −0.533

**Q.** What about the cyt c (cytochrome c; [9]) of the same compound?
**A.** 0.339

**Q.** What about the nucOX (nuOXPHOS transcripts; [9]) of the same compound?
**A.** 0.331

**Q.** And the Viability (C2C12 myotubes; [9])?
**A.** −0.665

**Q.** What about the mitoOX (mtOXPHOS transcripts; [9]) of the same compound?
**A.** 0.106

**Q.** What about the MTT [1, 9] of the same compound?
**A.** −0.651

**Q.** And the ΔΨm [2, 9]?
**A.** −0.537

**Q.** With `COc1ccc([C@H]2COc3cc(O)ccc3C2)c(OC)c1O` [mucronulatol] as the compound, how does the “GE-HTS (composite Z-score)” value (OXPHOS gene expression; [10]) read?
**A.** −0.345

**Q.** What about the “ROS (composite Z-score)” value (reactive oxygen species; [10]) of the same compound?
**A.** −0.187

**Q.** What about the “cyt c (composite Z-score)” value (cytochrome c; [10]) of the same compound?
**A.** −0.365

**Q.** And the “nucOX (composite Z-score)” value (nuOXPHOS transcripts; [10])?
**A.** −0.104

**Q.** And the “Viability (composite Z-score)” value (C2C12 myotubes; [10])?
**A.** 1.396

**Q.** What about the “mitoOX (composite Z-score)” value (mtOXPHOS transcripts; [10]) of the same compound?
**A.** −0.729

**Q.** What about the “MTT (composite Z-score)” value [1, 10] of the same compound?
**A.** −0.847

**Q.** What about the “ΔΨm (composite Z-score)” value [2, 10] of the same compound?
**A.** 0.006
